Data on one molecule can be found in ChEMBL document CHEMBL1146390, “Cytotoxic acylated Spermidine from a soft coral, Sinularia sp” (1997).

The assay relates to P388. In words: Cytotoxicity against mouse P388 cells. The class given is functional. The following applies: read-out: ED50 (the source's name).

Each structure is given as a SMILES string. Converted amounts (≈) assume the structure as drawn.

With `CCCCCCCCCC(C)/C=C/CC(=O)NCCCN(C)CCCCN(C)C` (stereo unspecified), the EC50 worked out at 0.04 µg/mL (≈ 0.0976 µM).
